In US5610297A, “Peptides ketoamides” (Georgia Tech Research Corp., priority 1995, dated 1997):

How the values were obtained:
[1] = target: T1, Calpain I from human erythrocytes (Homo sapiens, UniProt P07384); assay: Inhibition of calpain I (Suc-Leu-Tyr-AMC hydrolysis); type: biochemical
T1 construct: Calpain I was purified from human erythrocytes; from tissue; host or cells: human erythrocytes
T1 sequence (P07384 1-714): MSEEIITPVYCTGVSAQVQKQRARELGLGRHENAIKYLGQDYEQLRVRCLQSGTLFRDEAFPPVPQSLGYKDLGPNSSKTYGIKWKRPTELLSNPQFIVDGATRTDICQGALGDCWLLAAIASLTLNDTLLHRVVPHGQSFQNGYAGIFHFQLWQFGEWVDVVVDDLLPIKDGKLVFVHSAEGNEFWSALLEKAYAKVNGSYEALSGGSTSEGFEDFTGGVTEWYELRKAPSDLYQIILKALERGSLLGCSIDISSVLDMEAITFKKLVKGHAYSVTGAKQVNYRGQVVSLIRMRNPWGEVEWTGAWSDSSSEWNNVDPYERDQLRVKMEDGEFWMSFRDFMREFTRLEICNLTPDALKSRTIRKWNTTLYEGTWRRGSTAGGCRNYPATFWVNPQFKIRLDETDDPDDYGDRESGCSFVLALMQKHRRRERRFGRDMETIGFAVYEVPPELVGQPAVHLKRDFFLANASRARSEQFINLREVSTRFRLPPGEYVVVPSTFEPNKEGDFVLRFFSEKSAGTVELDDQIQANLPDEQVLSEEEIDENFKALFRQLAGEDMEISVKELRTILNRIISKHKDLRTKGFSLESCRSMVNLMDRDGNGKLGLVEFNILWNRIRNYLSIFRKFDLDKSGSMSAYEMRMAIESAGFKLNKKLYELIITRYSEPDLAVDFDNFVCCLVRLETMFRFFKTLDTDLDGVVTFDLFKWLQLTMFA
T1 sequence (P04632 1-268 partner): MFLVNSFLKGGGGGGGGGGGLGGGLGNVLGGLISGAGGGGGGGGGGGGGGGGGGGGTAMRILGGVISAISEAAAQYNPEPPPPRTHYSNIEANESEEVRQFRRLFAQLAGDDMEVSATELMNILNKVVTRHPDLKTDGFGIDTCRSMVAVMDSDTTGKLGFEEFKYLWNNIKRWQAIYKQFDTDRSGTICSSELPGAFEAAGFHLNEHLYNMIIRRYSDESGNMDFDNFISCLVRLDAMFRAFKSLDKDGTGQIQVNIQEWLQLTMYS
Experimental: (§1) Materials and Methods. HEPES, heparin, and A23187 were obtained from Calbiochem. Suc-Leu-Tyr-AMC and chromogenic substrates were obtained from Sigma. Calpain I was purified from human erythrocytes according to the method of Kitahara (Kitahara et al., J. Biochem. 95, 1759-1766) omitting the Blue-Sepharose step. Calpain II from rabbit muscle and cathepsin B were purchased from Sigma. Papain was purchased from Calbiochem.
(§2) Assay of Inhibitory Potency. Peptide α-ketoamides were assayed as reversible enzyme inhibitors. Various concentrations of inhibitors in Me2 SO were added to the assay mixture which contained buffer and substrate. The reaction was started by the addition of the enzyme and the hydrolysis rates were followed spectrophotometrically or fluorimetrically.
(§3) Calpain I from human erythrocytes and calpain II from rabbit were assayed using Suc-Leu-Tyr-AMC [Sasaki et al., J. Biol. Chem. 259, 12489-12494 (1984); incorporated herein by reference], and the AMC (7-amino-4-methylcoumarin) release was followed fluorimetrically (excitation at 380 nm, and emmision at 460 nm). Calpains were assayed in 25 mM Tris pH=8.0, 10 mM CaCl2. Fluorescence was followed using a Gilson FL-1A fluorometer or a Perkin-Elmer 203 Fluorescence spectrometer. Cathepsin B was assayed in 20 mM sodium acetate pH=5.2, 0.5 mM dithiothreitol using Bz-Phe-Val-Arg-p-nitroanilide as substrate. Alternately, cathepsin B was assayed with Z-Arg-Arg-AFC [Barrett and Kirschke, Methods Enzymol. 80, 535-561 (1981); incorporated herein by reference], and the AFC (7-amino-4-trifluoromethylcoumarin) release was followed fluorimetrically (excitation at 400 nm and emmision at 505 nm). Papain was assayed in 100 mM KPO4, 1 mM EDTA, 2.5 mM cysteine pH=6.0 using Bz-Arg-AMC or Bz-Arg-NA [Kanaoka et al., Chem. Plmrm. Bull. 25, 3126-3128 (1977); incorporated herein by reference] as a substrate. The AMC (7-amino-4-methylcoumarin) release was followed fluorimetrically (excitation at 380 nm, and emmision at 460 nm). Enzymatic hydrolysis rates were measured at various substrate and inhibitor concentrations, and KI values were determined by either Lineweaver-Burk plots or Dixon plots.
(§4) A 0.1M Hepes, 0.5M NaCl, pH 7.5 buffer was utilized for human leukocyte elastase (HLE), porcine pancreatic elastase (PPE), chymotrypsin and cathepsin G. A 0.1 Hepes, 0.01M CaCl2, pH 7.5 buffer was utilized for trypsin, plasmin, and coagulation enzymes. A 50 mM Tris-HCl, 2 mM EDTA, 5 mM cysteine, pH 7.5 was used as a buffer for papain. A 88 mM KH2 PO4, 12 mM Na2 HPO4, 1.33 mM EDTA, 2.7 mM cysteine, pH 6.0 solution was used as a buffer for cathepsin B. A 20 mM Hepes, 10 mM CaCl2, 10 mM mercatoethanol, pH 7.2 buffer was utilized for calpain I and calpain II.

[2] = target: Calpain II from rabbit muscle; assay: Inhibition of calpain II (Suc-Leu-Tyr-AMC hydrolysis); type: biochemical
Experimental: as §1, §2, §3, §4

Row | Ki [1] | Ki [2] | better inhibitor of calpain I than Z-Leu-Phe-CONH-Et ([1]; relative to Z-Leu-Phe-CONH-Et) | SMILES
1 | 7 µM | 320 nM | – | CCNC(=O)C(=O)[C@H](Cc1ccccc1)NC(=O)[C@H](CC(C)C)NC(=O)OCc1ccccc1 [Z--Leu--Phe--CONH--Et, Z-Leu-Phe-CONH-Et]
2 | 0.2 µM | – | – | CCCCNC(=O)C(=O)C(CC)NC(=O)C(CC(C)C)NC(=O)OCc1ccccc1 (stereo not drawn) [Z--Leu--Abu--CONH--nBu, Z-Leu-Abu-CONH-nBu]
3 | 15 µM | 50 nM | – | CCCNC(=O)C(=O)C(Cc1ccccc1)NC(=O)C(CC(C)C)NC(=O)OCc1ccccc1 (stereo not drawn) [Z--Leu--Phe--CONH--nPr, Z-Leu-Phe-CONH-nPr]
4 | 0.5 µM | 230 nM | 14 fold | CCNC(=O)C(=O)[C@H](CC)NC(=O)[C@H](CC(C)C)NC(=O)OCc1ccccc1 [Z--Leu--Abu--CONH--Et, Z-Leu-Abu-CONH-Et]
